PMC10732325 (ACS catalysis, 2023)

Assays:
[1] = target: VldE (Streptomyces hygroscopicus, UniProt Q15JG1, D158N); assay: X-ray crystal structure; type: binding; conditions: apo crystals soaked with 10 mM GDP-glucose, only GDP found; pH 8.5
[2] = target: VldE (Streptomyces hygroscopicus, UniProt Q15JG1, H182A); assay: X-ray crystal structure; type: binding; conditions: apo crystals soaked with 10 mM GDP-glucose, only GDP found; pH 8.0
Chain of VldE (Streptomyces hygroscopicus, UniProt Q15JG1, H182A) (Q15JG1 whole entry H182A): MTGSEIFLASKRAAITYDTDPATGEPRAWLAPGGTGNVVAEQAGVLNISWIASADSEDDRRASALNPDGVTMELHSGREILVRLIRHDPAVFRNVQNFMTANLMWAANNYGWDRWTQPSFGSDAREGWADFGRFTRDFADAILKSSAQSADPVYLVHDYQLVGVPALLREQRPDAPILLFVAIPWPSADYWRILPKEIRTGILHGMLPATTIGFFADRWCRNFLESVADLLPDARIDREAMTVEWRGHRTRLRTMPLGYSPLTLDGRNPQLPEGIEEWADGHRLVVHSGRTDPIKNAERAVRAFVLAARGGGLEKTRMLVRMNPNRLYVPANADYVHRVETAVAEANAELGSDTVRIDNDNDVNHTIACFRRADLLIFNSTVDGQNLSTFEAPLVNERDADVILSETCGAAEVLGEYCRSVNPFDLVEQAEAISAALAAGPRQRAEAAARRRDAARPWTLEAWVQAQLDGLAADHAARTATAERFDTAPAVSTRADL

Chain of VldE (Streptomyces hygroscopicus, UniProt Q15JG1, D158N) (Q15JG1 whole entry D158N): as the sequence (Q15JG1 whole entry H182A) above, with D158N, A182H counted along it

In the case of `Nc1nc2c(ncn2[C@@H]2O[C@H](COP(=O)(O)OP(=O)(O)O)[C@@H](O)[C@H]2O)c(=O)[nH]1` [GDP], the X-ray crystal structure [1] is reported as “only the crystal structures of the two variants in complex with GDP were obtained” and the X-ray crystal structure [2] is reported as “only the crystal structures of the two variants in complex with GDP were obtained”.
